What was measured:
Assay type in all cases: cell-based, human
[1] = system: foreskin cells in which senescence was induced by doxorubicin; assay: CellTiter-Glo cell viability of doxorubicin-induced senescent foreskin cells (Examples 1-2, 10, 11, 13; Tables 4, 63, 65); details: Homo sapiens, 72 h, doxorubicin-induced senescent foreskin cells, CellTiter-Glo, 0 μM = 100, read-out: Survival (%); for viability at 1.1 µM: 1.1 μM test compound; for viability at 10 µM: 10 μM test compound; for viability at 30 µM: 30 μM test compound; for viability at 90 µM: 90 μM test compound; for viability at […]: […] test compound; for viability at 270 µM: 270 μM test compound
Experimental: After 3 days, cell viability was measured using CellTiter-Glo Luminescent Cell Viability Assay (Promega) or light microscopy.

[2] = system: HMGN1; assay: HMGN1 ELISA in culture medium of foreskin cells (Examples 10, 11; Tables 62, 63, 64); details: Homo sapiens, doxorubicin-treated foreskin cells, DMSO = 100; for activity at 90 µM: 90 μM test compound; for activity at 30 µM: 30 μM test compound, read-out: HMGN1; for activity at 270 µM: 270 μM test compound
[3] = system: HMGN1; assay: HMGN1 ELISA in culture medium of A549 cancer cells (Example 12, Table 66); details: Homo sapiens, A549, doxorubicin-induced senescent A549 cells, ELISA, DMSO = 100, read-out: HMGN1 (amount of HMGN1 secreted in the cell culture); for activity at 90 µM: test compound 90 μM; for activity at 30 µM: test compound 30 μM; for activity at 270 µM: test compound 270 μM
[4] = system: A549; assay: CellTiter-Glo cell viability of senescent A549 cancer cells (Example 12, Table 67); details: Homo sapiens, A549, doxorubicin-induced senescent A549 cancer cells, CellTiter-Glo, read-out: Survival (%); for viability at 1.1 µM: 1.1 μM test compound; for viability at 10 µM: 10 μM test compound; for viability at 30 µM: 30 μM test compound; for viability at 90 µM: 90 μM test compound; for viability at 270 µM: 270 μM test compound

Compound | viability at 1.1 µM [1] [%] | viability at 10 µM [1] [%] | viability at 30 µM [1] [%] | viability at 90 µM [1] [%] | viability at […] [1] [%] | activity at 90 µM [2] [%] | activity at 90 µM [3] [%] | viability at 1.1 µM [4] [%] | viability at 10 µM [4] [%] | viability at 30 µM [4] [%] | viability at 90 µM [4] [%] | activity at 30 µM [2] [%] | activity at 30 µM [3] [%] | viability at 270 µM [1] [%] | activity at 270 µM [2] [%] | activity at 270 µM [3] [%] | viability at 270 µM [4] [%]
CCCCC/C=C\C/C=C\C/C=C\CCCCCCC(=O)O [LX-2705, Dihomogamma-linolenic acid] | 102 | 72.1 | 45.5 | 31.7 | 102 | 202 | 160 | 101 | 96.8 | 100 | 61.2 | – | – | – | – | – | –
COC(=O)C1=C(C)NC(C)=C(C(=O)OC(C)(C)CN(C)CCC(c2ccccc2)c2ccccc2)C1c1cccc([N+](=O)[O-])c1 (stereo not drawn) [LX-2801, Lercanidipine, reference compound] | 104 | 51.2 | 25.3 | – | 98.5 | – | – | 89.6 | 58.6 | 14.2 | – | 241 | 315 | – | – | – | –
O=C1C(O)=C([C@H]2CC[C@H](c3ccc(Cl)cc3)CC2)C(=O)c2ccccc21 [LX-2802, Atovaquone, reference compound] | 102 | 58.4 | 17.2 | – | 81.2 | – | – | 101 | 74.1 | 35.7 | – | 268 | 279 | – | – | – | –
COc1cc2nccc(Oc3ccc(NC(=O)NC4CC4)c(Cl)c3)c2cc1C(N)=O [LX-2803, Lenvatinib, reference compound] | 62 | 11.5 | 3.6 | – | 43.9 | – | – | 91.2 | 84.9 | 54.4 | – | 282 | 195 | – | – | – | –
CCCCS(=N)(=O)CCC(N)C(=O)O (stereo not drawn) [LX-2805, Buthionine sulfoximine] | 99.4 | 92 | 84.2 | 82 | 97.3 | – | – | 105 | 96.7 | 82.9 | 73.3 | – | – | 51.1 | 182 | 158 | 49.3
C=CC(=O)Nc1cccc(Oc2nc(Nc3ccc(N4CCN(C)CC4)cc3)nc3ccoc23)c1 [LX-2902, Poseltinib, reference compound] | 1.9 | – | – | – | – | – | – | 95.7 | 72.4 | 31.2 | – | 297 | 271 | – | – | – | –
CN(C)CCCN1c2ccccc2CCc2ccc(Cl)cc21 [LX-3101, Clomipramine, reference compound] | 93.3 | 11.7 | – | – | 75.8 | – | – | 89.2 | 7.1 | – | – | 284 | 334 | – | – | – | –
O=C(NCc1ccncc1)C12CC3CC(C1)CC(c1ccc(Cl)cc1)(C3)C2 [LX-3106, Opaganib, reference compound] | 97.7 | 82.5 | 59.7 | 9.8 | 87.4 | 254 | 236 | 108 | 91.7 | 76.8 | 4.7 | – | – | – | – | – | –
C[C@H](N)C(=O)N1C[C@H](CCCB(O)O)[C@](N)(C(=O)O)C1 [LX-3107] | 87.7 | 74.2 | 33.4 | – | 83.4 | – | – | 96.5 | 77.8 | 4.4 | – | 196 | 267 | – | – | – | –
O=C(O)CCCCC(CCSCc1ccccc1)SCc1ccccc1 (stereo not drawn) [LX-3109, Devimistat, reference compound] | 97.2 | 88.7 | 74 | 48.7 | 96 | – | – | 108 | 85.7 | 68.2 | 43.4 | – | – | 19.7 | 232 | 247 | 0.1
CC(=O)N[C@@H](Cc1c[nH]c2ccccc12)C(=O)N[C@@H](CCC(=O)C=[N+]=[N-])C(=O)OC(C)C [LX-3201, Sirpiglenastat, reference compound] | 99.3 | 20.1 | – | – | 91.9 | – | – | 96.5 | 68.1 | 12.8 | – | 286 | 309 | – | – | – | –
Cc1[nH]nc(C(F)(F)F)c1Cc1sc2c(c1C(=O)N1C[C@](C)(O)CO1)c(=O)n(C)c(=O)n2C(C)C [LX-3203] | 107 | – | – | – | 15.4 | – | – | 105 | 21.6 | – | – | 315 | 293 | – | – | – | –
Nc1cccc2c1CN(C1CCC(=O)NC1=O)C2=O (stereo not drawn) [LX-3207, Lenalidomide, reference compound] | 99.3 | 56.4 | 17.9 | – | 91.9 | – | – | 101 | 76.4 | 18.9 | – | 219 | 222 | – | – | – | –
C=CC(=O)N1CCC[C@@H](n2nc(-c3ccc(Oc4ccccc4)cc3)c3c(N)ncnc32)C1 [LX-3209, Ibrutinib, reference compound] | 105 | 2 | – | – | 52.8 | – | – | 95.4 | 55.7 | 2.2 | – | 274 | 199 | – | – | – | –
Cc1ccc(Nc2nccc(N(C)c3ccc4c(C)n(C)nc4c3)n2)cc1S(N)(=O)=O [LX-3301, Pazopanib, reference compound] | 100 | 67.4 | 39.5 | 2.7 | 99.2 | 228 | 229 | 100 | 85.9 | 51.9 | 4.2 | – | – | – | – | – | –
COc1cc2c(Nc3ccc(Br)cc3F)ncnc2cc1OCC1CCN(C)CC1 [LX-3302, Vandetanib, reference compound] | 99.3 | 6.7 | – | – | 51.9 | – | – | 99.5 | 67.9 | 16.4 | – | 268 | 232 | – | – | – | –
CCc1nc(C(N)=O)c(Nc2ccc(N3CCC(N4CCN(C)CC4)CC3)c(OC)c2)nc1NC1CCOCC1 [LX-3303, Gilteritinib, reference compound] | 83.9 | 13.9 | – | – | 69.4 | – | – | 101 | 53.8 | 11.7 | – | 275 | 239 | – | – | – | –
CO[C@@H]1[C@H](N(C)C(=O)c2ccccc2)C[C@H]2O[C@]1(C)n1c3ccccc3c3c4c(c5c6ccccc6n2c5c31)C(=O)NC4 [LX-3307, Midostaurin, reference compound] | 108 | 32.7 | – | – | 96.1 | – | – | 99.8 | 51.9 | 20 | – | 288 | 295 | – | – | – | –
C=CC(=O)N1CCC([C@@H]2CCNc3c(C(N)=O)c(-c4ccc(Oc5ccccc5)cc4)nn32)CC1 [LX-3309, Zanubrutinib, reference compound] | 99.3 | 36.9 | – | – | 87.1 | – | – | 104 | 49.6 | 35.2 | – | 293 | 247 | – | – | – | –
